Counter-ions that a name gives are not always drawn.
Assays:
vertebral blood flow [1] = experiment: Activity of increasing cerebral blood flow (vertebral blood flow), intravenous administration in anesthetized dogs; type: in vivo; conditions: 0.3 mg/kg, injected into femoral vein, anesthetized mongrel dogs
Protocol: The activity of increasing cerebral blood flow was measured by using the amount of vertebral blood flow as an index. Mongrel dogs of either sex (body weight 11 to 14 kg; four per group) were anesthetized with sodium pentobarbital (30 mg/kg, by intravenous injection), and the right vertebral artery was isolated from the surrounding tissues. A flow probe was attached to it and led to an electromagnetic flow meter (MFV-2100 made by Nihon Kohden Co., Ltd.). The amount of blood flow was periodically measured [see Meth and Find Exptl Clin Pharmacol, 3 (6), 397 (1981)]. Each of the test compounds was dissolved in a 2% tartaric acid solution containing 20% dimethylacetamide, and injected into the right femoral vein.
Furthermore, each of the test compounds was administered in a dose of 0.3 mg/kg, and increases (%) in vertebral blood flow were determined 1, 5, 10 and 20 minutes after the administration.

in vivo = conditions: mouse, oral, ddY-strain male mice, fasted 24 hours, deaths during seven days, Weil method, read-out: Acute toxicity LD50
Protocol: ddY-strain male mice (body weight 18 to 22 g; five per group) were caused to fast 24 hours. Then, each of the test compounds was administered orally, and acute toxicity values (LD50) were determined.
Each of the compounds was dissolved or suspended in a 2% tartaric acid solution containing 20% of dimethylacetamide, and orally administered to the animals. From the number of animals which died during seven days, the LD50 values were calculated by using the Weil method.

vertebral blood flow [2] = experiment: Activity of increasing cerebral blood flow (vertebral blood flow), intravenous administration in anesthetized dogs; type: in vivo; conditions: Canis lupus familiaris; 0.03 to 0.3 mg/kg intravenous, anesthetized mongrel dogs; calculated from the regression line; read-out: VBF-ED50 (dose which increased the cerebral blood flow by 50%)
vertebral blood flow [3] = experiment: Activity to increase cerebral blood flow (vertebral blood flow), intraduodenal administration in dogs; type: in vivo; conditions: 1 mg/kg intraduodenal, mongrel dogs
Protocol: The activity of compound A of the invention to increase cerebral blood flow was examined by intraduodenal administration.
Compound A was dissolved in a 2% tartaric acid solution containing 20% dimethylacetamide, and administered intraduodenally to mongrel dogs of either sex (body weight 11-18 kg, five per group) in a dose of 1 mg/kg.
At 10, 30, 60, 120, 180 and 240 minutes after the administration, the increase (%) of vertebral blood flow was measured in the same way as in Test Example 1.

[4] = 10 minutes after administration
[5] = 20 minutes after administration

Row | Structure (SMILES) | Increase (%) in vertebral blood flow (mean ± standard error) (vertebral blood flow [1]; 1 minute after administration) [%] | Increase (%) in vertebral blood flow (mean ± standard error) (vertebral blood flow [1]; 5 minutes after administration) [%] | Increase (%) in vertebral blood flow (mean ± standard error) (vertebral blood flow [1]; [4]) [%] | Increase (%) in vertebral blood flow (mean ± standard error) (vertebral blood flow [1]; [5]) [%] | LD50 at 168 h (in vivo) [mg/kg] | ED50 (vertebral blood flow [2]) [mg/kg] | Increase (%) of vertebral blood flow (mean ± standard error) (vertebral blood flow [3]; [4]) [%] | Increase (%) of vertebral blood flow (mean ± standard error) (vertebral blood flow [3]; 30 minutes after administration) [%] | Increase (%) of vertebral blood flow (mean ± standard error) (vertebral blood flow [3]; 60 minutes after administration) [%] | Increase (%) of vertebral blood flow (mean ± standard error) (vertebral blood flow [3]; 120 minutes after administration) [%] | Increase (%) of vertebral blood flow (mean ± standard error) (vertebral blood flow [3]; 180 minutes after administration) [%] | Increase (%) of vertebral blood flow (mean ± standard error) (vertebral blood flow [3]; 240 minutes after administration) [%]
1 | COc1ccc(C=CCN2CCN(C(c3ccccc3)c3ccccc3)CC2)c(OC)c1OC.Cl.Cl [B, 1-Benzhydryl-4-(2,3,4-trimethoxycinnamyl) piperazine dihydrochloride] | 76 ± 14 | 58 ± 12 | 41 ± 7 | 26 ± 4 | 841 | 0.12 |  |  |  |  |  | 
2 | COc1ccc(C=CCN2CCN(C(c3ccc(F)cc3)c3ccc(F)cc3)CC2)c(OC)c1.O=C(O)/C=C/C(=O)O [C, 1-[Bis(4-fluorophenyl)methyl]-4-(2,4-dimethoxycinnamyl)piperazine fumarate] | 83 ± 12 | 92 ± 10 | 71 ± 7 | 50 ± 7 | 102 | 0.08 |  |  |  |  |  | 
3 | C(=Cc1ccccc1)CN1CCN(C(c2ccccc2)c2ccccc2)CC1 [Cinnarizine, reference compound] | 40 ± 10 | 5 ± 4 | 2 ± 2 | 2 ± 4 |  |  |  |  |  |  |  | 
4 | COc1ccc(C=CCN2CCN(C(c3ccc(F)cc3)c3ccc(F)cc3)CC2)c(OC)c1OC.Cl.Cl [Compound A, 1-[Bis(4-fluorophenyl)methyl]-4-(2,3,4-trimethoxycinnamyl)piperazine dihydrochloride] | 107 ± 17 | 137 ± 39 | 134 ± 40 | 120 ± 38 | 185 | 0.06 | 6.2 ± 1.8 | 51.0 ± 18.6 | 149.3 ± 48.0 | 150.9 ± 38.2 | 98.8 ± 24.2 | 55.1 ± 17.2
5 | COc1ccc(C=CCN2CCN(C(c3ccccc3)c3ccccc3)CC2)c(OC)c1.O=C(O)/C=C/C(=O)O [D, 1-Benzhydryl-4-(2,4-dimethoxycinnamyl) piperazine fumarate] | 66 ± 11 | 51 ± 10 | 27 ± 7 | 18 ± 6 | 773 | 0.18 |  |  |  |  |  | 
6 | Fc1ccc(C(c2ccc(F)cc2)N2CCN(CC=Cc3ccccc3)CC2)cc1 [Flunarizine dihydrochloride, reference compound] | 53 ± 20 | 20 ± 12 | 11 ± 7 | 10 ± 6 |  | > 0.3 |  |  |  |  |  | 

Reference: patent US4703048A, “Novel 1-benzhydryl-4-cinnamylpiperazine derivatives, and pharmaceutical compositions comprising said compounds as active ingredient for treating a cerebrovascular disease” (Kanebo Ltd., priority 1985, dated 1987)
